The source made the active and inactive calls. The rule behind the calls is not given here.

Consider two compounds from ChEMBL document CHEMBL3875218, “Bifunctional conjugates with potent inhibitory activity towards cyclooxygenase and histone deacetylase” (Bioorg Med Chem, 2017).

Series [1] concerns LNCaP. Nature of the series: Induction of cell cycle arrest in human LNCAP cells assessed as accumulation at S phase at 2.5 uM after 24 hrs by propidium iodide staining based FACS analysis (reference value: […]). In kind it is functional. On the technique in general: A flow cytometer gives signals particle by particle.
Series [2] has as its target T1, Prostaglandin G/H synthase 2 (Homo sapiens, UniProt P35354).
T1 sequence (P35354 whole entry): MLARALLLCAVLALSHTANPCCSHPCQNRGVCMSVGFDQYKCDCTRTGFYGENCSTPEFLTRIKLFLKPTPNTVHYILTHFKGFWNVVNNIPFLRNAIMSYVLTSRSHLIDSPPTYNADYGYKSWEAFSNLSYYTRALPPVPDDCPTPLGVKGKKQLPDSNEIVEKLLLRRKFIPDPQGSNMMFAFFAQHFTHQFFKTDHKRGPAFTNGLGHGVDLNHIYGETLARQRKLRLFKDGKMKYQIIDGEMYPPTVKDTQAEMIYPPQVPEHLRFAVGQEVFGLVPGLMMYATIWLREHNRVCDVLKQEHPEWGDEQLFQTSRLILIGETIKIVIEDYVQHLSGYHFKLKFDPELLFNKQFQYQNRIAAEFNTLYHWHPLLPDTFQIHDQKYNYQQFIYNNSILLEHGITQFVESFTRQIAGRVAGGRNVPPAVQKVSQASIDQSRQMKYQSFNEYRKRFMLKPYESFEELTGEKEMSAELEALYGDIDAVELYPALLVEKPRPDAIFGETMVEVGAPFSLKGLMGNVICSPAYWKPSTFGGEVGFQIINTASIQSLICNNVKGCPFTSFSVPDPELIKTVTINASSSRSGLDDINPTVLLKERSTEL
Nature of the series: Inhibition of recombinant human COX2 using arachidonic acid as substrate preincubated for 15 mins followed by substrate addition for 2 mins by Cayman based fluorescence assay.

Series [3] addresses T2, Prostaglandin G/H synthase 1 (Ovis aries, UniProt P05979).
T2 sequence (P05979 whole entry): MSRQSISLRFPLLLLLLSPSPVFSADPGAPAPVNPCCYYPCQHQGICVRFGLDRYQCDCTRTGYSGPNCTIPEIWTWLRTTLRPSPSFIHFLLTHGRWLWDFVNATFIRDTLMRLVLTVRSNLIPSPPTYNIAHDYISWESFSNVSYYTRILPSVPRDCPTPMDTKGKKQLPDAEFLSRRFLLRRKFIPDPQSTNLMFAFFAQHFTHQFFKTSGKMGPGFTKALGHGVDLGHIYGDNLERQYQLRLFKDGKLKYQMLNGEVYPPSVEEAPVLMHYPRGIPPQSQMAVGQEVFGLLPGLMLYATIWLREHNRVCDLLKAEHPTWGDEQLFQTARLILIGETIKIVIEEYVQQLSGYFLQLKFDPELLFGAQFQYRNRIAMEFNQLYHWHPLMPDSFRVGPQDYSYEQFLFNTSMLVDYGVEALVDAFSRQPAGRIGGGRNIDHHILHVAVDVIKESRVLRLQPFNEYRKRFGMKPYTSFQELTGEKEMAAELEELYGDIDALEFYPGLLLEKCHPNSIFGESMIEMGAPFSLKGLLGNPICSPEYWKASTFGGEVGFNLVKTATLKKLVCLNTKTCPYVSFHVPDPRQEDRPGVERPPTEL
The series is described as follows: Inhibition of sheep COX1 using arachidonic acid as substrate preincubated for 15 mins followed by substrate addition for 2 mins by Cayman based fluorescence assay.

A short description of series [4]: Cytotoxicity against African green monkey Vero cells assessed as cell growth inhibition after 72 hrs by MTT assay. In kind it is toxicity, cell-based. The conditions noted are these: African green monkey (Chlorocebus sabaeus). A general note: Tetrazolium assays rely on reduction of a dye to a coloured formazan, in cell work by metabolically active cells.
The target of series [5] is T3, Protein deacetylase HDAC6 (Homo sapiens, UniProt Q9UBN7).
T3 sequence (Q9UBN7 whole entry): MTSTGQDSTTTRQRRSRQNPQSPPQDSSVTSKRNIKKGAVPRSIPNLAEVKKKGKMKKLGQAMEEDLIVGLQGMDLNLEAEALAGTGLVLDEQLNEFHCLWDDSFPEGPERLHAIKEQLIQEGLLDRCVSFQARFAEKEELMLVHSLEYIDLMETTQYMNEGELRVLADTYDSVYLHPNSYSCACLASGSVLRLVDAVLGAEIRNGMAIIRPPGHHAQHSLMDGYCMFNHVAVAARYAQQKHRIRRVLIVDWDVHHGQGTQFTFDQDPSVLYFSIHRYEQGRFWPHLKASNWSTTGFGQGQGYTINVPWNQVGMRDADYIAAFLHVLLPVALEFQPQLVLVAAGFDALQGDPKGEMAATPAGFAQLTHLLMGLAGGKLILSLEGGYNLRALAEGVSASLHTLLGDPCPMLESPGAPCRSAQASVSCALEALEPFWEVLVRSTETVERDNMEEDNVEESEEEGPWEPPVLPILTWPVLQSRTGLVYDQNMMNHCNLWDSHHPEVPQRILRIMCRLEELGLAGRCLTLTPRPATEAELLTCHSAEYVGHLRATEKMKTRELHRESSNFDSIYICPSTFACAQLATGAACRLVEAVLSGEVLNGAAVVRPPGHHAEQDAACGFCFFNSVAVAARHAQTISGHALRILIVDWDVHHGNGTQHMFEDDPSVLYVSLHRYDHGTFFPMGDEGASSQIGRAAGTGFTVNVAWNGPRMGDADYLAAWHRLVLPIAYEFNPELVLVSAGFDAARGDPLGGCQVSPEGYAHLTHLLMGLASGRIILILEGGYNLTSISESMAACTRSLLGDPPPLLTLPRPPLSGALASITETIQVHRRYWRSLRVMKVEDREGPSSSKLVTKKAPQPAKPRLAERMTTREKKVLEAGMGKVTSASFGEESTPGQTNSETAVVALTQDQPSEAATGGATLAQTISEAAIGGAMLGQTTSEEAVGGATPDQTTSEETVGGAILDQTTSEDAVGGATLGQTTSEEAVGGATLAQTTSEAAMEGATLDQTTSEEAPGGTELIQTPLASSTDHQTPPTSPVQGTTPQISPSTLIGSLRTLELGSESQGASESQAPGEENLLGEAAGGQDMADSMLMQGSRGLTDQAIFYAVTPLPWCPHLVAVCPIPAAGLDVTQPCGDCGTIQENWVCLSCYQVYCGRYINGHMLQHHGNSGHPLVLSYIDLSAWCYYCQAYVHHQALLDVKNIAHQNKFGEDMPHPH
Nature of the series: Inhibition of HDAC6 (unknown origin) after 20 hrs by SAMDI mass spectroscopic analysis.

The target in series [6] is T4, Prostaglandin G/H synthase 2 (Homo sapiens) (UniProt P35354).
T4 sequence (whole entry): T1 sequence (P35354 whole entry)
Nature of the series: Inhibition of recombinant human COX2 at 10 uM using arachidonic acid as substrate preincubated for 15 mins followed by substrate addition for 2 mins by Cayman based fluorescence assay.

The test system of series [7] is LNCaP. Nature of the series: Induction of cell cycle arrest in human LNCAP cells assessed as accumulation at greater G2 phase at 2.5 uM after 24 hrs by propidium iodide staining based FACS analysis (reference value: 0.20%). In kind it is functional.
Series [8] in a line: Cytotoxicity against human LNCAP cells assessed as cell growth inhibition after 72 hrs by MTT assay. The class given is functional, cell-based.
The subject of series [9] is LNCaP. Nature of the series: Inhibition of HDAC in human LNCAP cells assessed as down regulation of androgen receptor expression after 24 hrs by Western blot analysis. In kind it is cell-based. For orientation: In western blotting, separated proteins are transferred to a membrane and probed.
Series [10] concerns LNCaP. Nature of the series: Inhibition of HDAC in human LNCAP cells assessed as down regulation of COX2 expression at 2 to 10 uM after 24 hrs by Western blot analysis. In kind it is cell-based.

Take `Cc1ccc(-c2cc(C(F)(F)F)nn2-c2ccc(S(=O)(=O)NCCCCCCC(=O)NO)cc2)cc1`: the results for the Activity in the series on LNCaP [1] and with LNCaP [7] were 31.7% and 1.67%, respectively. The IC50 (usually the concentration needed to halve the response being measured) was determined as 300 nM in series [2], 3570 nM in [3], 66 nM in [5] and 2190 nM in series [8]. The 50% inhibitory concentration (IC50) at 72 h in [4] came to 5530 nM. For the same compound, the inhibition – broadly, the change of the read-out against control, counted positive when it falls – in [6] was 100%; with LNCaP [9], “Dose-dependent effect”.

Take `COc1ccc2c(c1)c(CC(=O)NCCCCCCC(=O)NO)c(C)n2C(=O)c1ccc(Cl)cc1`: the half-inhibitory concentration (IC50) in [2] was 330 nM; in series [3] it was 21000 nM; in [5], 49 nM. The inhibition in series [6] came out at 98.1%. The inhibition result in the series with LNCaP [10] is “Active”. Besides, the Activity with LNCaP [7] was found to be 0.35%.
